In the NIST ThermoML archive (doi:10.1021/je034007i):

Key:
[1] = excess molar enthalpy (molar enthalpy of mixing); xn = mol fraction of the nth substance listed; conditions: 308.15 K, 101.3 kPa, Liquid
[2] = 308.15 K; 101.33 kPa; Liquid; vibrating tube

OCCOCCOCCO [triethylene glycol] + C[S+](C)[O-]
[1]
Conditions | excess molar enthalpy [kcal/mol]
x1 = 0.0217 | -0.0287
x1 = 0.0425 | -0.0537
x1 = 0.0625 | -0.0751
x1 = 0.0816 | -0.0944
x1 = 0.1176 | -0.125
x1 = 0.1509 | -0.15
x1 = 0.2104 | -0.181
x1 = 0.2621 | -0.198
x1 = 0.3477 | -0.215
x1 = 0.4444 | -0.214
x1 = 0.516 | -0.207
x1 = 0.6153 | -0.186
x1 = 0.6807 | -0.168
x1 = 0.7618 | -0.137
x1 = 0.81 | -0.117
x1 = 0.8648 | -0.0917
x1 = 0.9275 | -0.0526

C[S+](C)[O-] [dimethyl sulfoxide]
Conditions | mass density [kg/m3]
[2] | 1085.5

CC(O)CO (configuration not stated) [1,2-propanediol]
Conditions | mass density [kg/m3]
[2] | 1026.15

OCCOCCOCCO [triethylene glycol]
Conditions | mass density [kg/m3]
[2] | 1112.1

OCCOCCO [diethylene glycol] + C[S+](C)[O-]
[1]
Conditions | excess molar enthalpy [kcal/mol]
x1 = 0.0303 | -0.0251
x1 = 0.0588 | -0.0476
x1 = 0.0857 | -0.0664
x1 = 0.1111 | -0.0834
x1 = 0.1579 | -0.109
x1 = 0.2 | -0.128
x1 = 0.2727 | -0.15
x1 = 0.3332 | -0.159
x1 = 0.4285 | -0.162
x1 = 0.5295 | -0.154
x1 = 0.6 | -0.145
x1 = 0.6923 | -0.124
x1 = 0.75 | -0.112
x1 = 0.8182 | -0.0909
x1 = 0.8571 | -0.0762
x1 = 0.9 | -0.0599
x1 = 0.9474 | -0.0347

OCCO [1,2-ethanediol] + C[S+](C)[O-]
[1]
Conditions | excess molar enthalpy [kcal/mol]
x1 = 0.0506 | -0.0466
x1 = 0.0963 | -0.0878
x1 = 0.1378 | -0.119
x1 = 0.1757 | -0.147
x1 = 0.2423 | -0.181
x1 = 0.2989 | -0.203
x1 = 0.39 | -0.219
x1 = 0.4601 | -0.218
x1 = 0.5612 | -0.198
x1 = 0.6574 | -0.169
x1 = 0.7189 | -0.147
x1 = 0.7933 | -0.118
x1 = 0.8365 | -0.0991
x1 = 0.8847 | -0.0728
x1 = 0.911 | -0.0595
x1 = 0.9388 | -0.044
x1 = 0.9685 | -0.0237

OCCOCCO [diethylene glycol]
Conditions | mass density [kg/m3]
[2] | 1105.65

CC(O)CO (configuration not stated) [1,2-propanediol] + C[S+](C)[O-]
[1]
Conditions | excess molar enthalpy [kcal/mol]
x2 = 0.0389 | -0.0194
x2 = 0.0748 | -0.039
x2 = 0.1082 | -0.0531
x2 = 0.1392 | -0.0645
x2 = 0.1921 | -0.0847
x2 = 0.2444 | -0.0962
x2 = 0.3267 | -0.104
x2 = 0.3928 | -0.101
x2 = 0.4925 | -0.0926
x2 = 0.5929 | -0.0788
x2 = 0.66 | -0.0691
x2 = 0.7444 | -0.0543
x2 = 0.7952 | -0.0446
x2 = 0.8535 | -0.0323
x2 = 0.8859 | -0.0234
x2 = 0.9209 | -0.0155
x2 = 0.9588 | -0.00719
